According to patent US7550456B2, “Substituted aryl cycloalkanoyl derivatives and methods of their use” (Wyeth, priority 2003, dated 2009):
Structures can show the parent of a compound that is named as a salt.

Biological target: T1, human hNET (Homo sapiens, UniProt P23975)
T1 construct: expressed in transfected cells; host or cells: MDCK-Net6 (MDCK cells, stably transfected)
Assay: Norepinephrine (NE) uptake assay in MDCK-Net6 cells
Assay type: cell-based
Details: [3H]NE uptake; for inhibition at 1 µM: 1 μM test compound, read-out: % Inhibition @ 1 μM (hNET); for EC50: test range 1 to 10,000 nM
Method in brief: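 Radiolabelled NE uptake was counted by scintillation after NaOH lysis, with 1 µM desipramine defining non-specific uptake. EC50 came from a logistic dose-response fit.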

T1 sequence (P23975 whole entry): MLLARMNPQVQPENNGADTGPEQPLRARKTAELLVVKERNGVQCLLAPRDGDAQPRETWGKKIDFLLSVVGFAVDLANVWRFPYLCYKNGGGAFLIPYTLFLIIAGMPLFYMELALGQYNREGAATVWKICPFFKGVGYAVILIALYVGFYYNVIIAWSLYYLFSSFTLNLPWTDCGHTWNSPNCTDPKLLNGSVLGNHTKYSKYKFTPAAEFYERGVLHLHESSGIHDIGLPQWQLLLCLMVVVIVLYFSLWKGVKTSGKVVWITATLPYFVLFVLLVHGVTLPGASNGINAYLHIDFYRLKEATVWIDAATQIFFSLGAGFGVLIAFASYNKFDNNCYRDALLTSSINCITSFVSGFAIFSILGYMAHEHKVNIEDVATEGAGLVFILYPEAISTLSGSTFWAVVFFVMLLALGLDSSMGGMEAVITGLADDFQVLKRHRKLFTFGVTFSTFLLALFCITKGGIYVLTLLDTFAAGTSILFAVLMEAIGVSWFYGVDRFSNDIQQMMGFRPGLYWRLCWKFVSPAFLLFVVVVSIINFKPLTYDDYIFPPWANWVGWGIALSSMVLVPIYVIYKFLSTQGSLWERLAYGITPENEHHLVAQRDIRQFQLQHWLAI

| SMILES | inhibition at 1 µM | EC50 |
| --- | --- | --- |
| C[C@@H]1CN(C[C@H](c2cccc(OC(F)(F)F)c2)C2(O)CCCCC2)CCN1 [Example 369, 1-{(1S)-2-[(3R)-3-methylpiperazin-1-yl]-1-[3-(trifluoromethoxy)phenyl]ethyl}cyclohexanol dihydrochloride] | 90% | – |
| C[C@@H]1CN(C[C@H](c2cccc(OC(F)(F)F)c2)C2(O)CCCCC2)CCN1C [Example 370, 1-{(1S)-2-[(3R)-3,4-dimethylpiperazin-1-yl]-1-[3-(trifluoromethoxy)phenyl]ethyl}cyclohexanol dihydrochloride] | 79% | – |
| CC(C)(CO)N1CCN(CC(c2cccc(OC(F)(F)F)c2)C2(O)CCCCC2)CC1 (centres unmarked) [Example 373, 1-{2-[4-(2-hydroxy-1,1-dimethylethyl)piperazin-1-yl]-1-[3-(trifluoromethoxy)phenyl]ethyl}cyclohexanol dihydrochloride] | 90% | – |
| COc1cc(C(CN2CCNCC2)C2(O)CCCCC2)cc(Br)c1OCc1ccccc1 (centres unmarked) [Example 390, 1-{1-[4-(benzyloxy)-3-bromo-5-methoxyphenyl]-2-piperazin-1-ylethyl}cyclohexanol dihydrochloride] | 6% | – |
| COc1cc(C(CN2CCN(C)CC2)C2(O)CCCCC2)cc(Br)c1OCc1ccccc1 (centres unmarked) [Example 391, 1-[1-[4-(benzyloxy)-3-bromo-5-methoxyphenyl]-2-(4-methylpiperazin-1-yl)ethyl]cyclohexanol dihydrochloride] | 30% | – |
| CN1CCN(CC(c2cc(Br)c(OCc3ccccc3)c(Br)c2)C2(O)CCCCC2)CC1 (centres unmarked) [Example 393, 1-[1-[4-(benzyloxy)-3,5-dibromophenyl]-2-(4-methylpiperazin-1-yl)ethyl]cyclohexanol dihydrochloride] | 59% | – |
| C[C@@H]1CCC(O)(C(CN2CCNCC2)c2cccc(OC(F)(F)F)c2)C1 (stereo partly drawn) [Example 394, (3R)-3-methyl-1-{2-piperazin-1-yl-1-[3-(trifluoromethoxy)phenyl]ethyl}cyclopentanol dihydrochloride] | 35% | – |
| Oc1ccc(C(CN2CCNCC2)C2(O)CCCCC2)cc1OC(F)(F)F (centres unmarked) [Example 400, 4-[1-(1-hydroxycyclohexyl)-2-piperazin-1-ylethyl]-2-(trifluoromethoxy)phenol dihydrochloride] | 38% | – |
| CCOc1ccc(C(CN2CCNCC2)C2(O)CCCCC2)cc1OC(F)(F)F (centres unmarked) [Example 404, 1-{1-[4-ethoxy-3-(trifluoromethoxy)phenyl]-2-piperazin-1-ylethyl}cyclohexanol dihydrochloride] | 42% | – |
| CC(C)COc1ccc(C(CN2CCNCC2)C2(O)CCCCC2)cc1OC(F)(F)F (centres unmarked) [Example 406, 1-{1-[4-isobutoxy-3-(trifluoromethoxy)phenyl]-2-piperazin-1-ylethyl}cyclohexanol dihydrochloride] | 22% | – |
| CC(C)COc1ccc(C(CN2CCN(C)CC2)C2(O)CCCCC2)cc1OC(F)(F)F (centres unmarked) [Example 407, 1-[1-[4-isobutoxy-3-(trifluoromethoxy)phenyl]-2-(4-methylpiperazin-1-yl)ethyl]cyclohexanol dihydrochloride] | 12% | – |
| CN1CCN(CC(c2ccc(OCc3ccccc3)c(OC(F)(F)F)c2)C2(O)CCCCC2)CC1 (centres unmarked) [Example 408, 1-[1-[4-(benzyloxy)-3-(trifluoromethoxy)phenyl]-2-(4-methylpiperazin-1-yl)ethyl]cyclohexanol dihydrochloride] | – | 398 nM |
| OC1(C(CN2CCNCC2)c2ccc(CCc3ccccc3)cc2)CCCCC1 (centres unmarked) [Example 409, 1-{1-[4-(2-phenylethyl)phenyl]-2-piperazin-1-ylethyl}cyclohexanol dihydrochloride] | 62% | – |
| CN1CCN(CC(c2ccc(CCc3ccccc3)cc2)C2(O)CCCCC2)CC1 (centres unmarked) [Example 410, 1-{2-(4-methylpiperazin-1-yl)-1-[4-(2-phenylethyl)phenyl]ethyl}cyclohexanol dihydrochloride] | 51% | – |
| CN1CCN(C[C@@H](c2ccc(OCc3ccccc3)cc2)C2(O)CCCCC2)CC1 [Example 412, 1-[(2R)-1-[4-(benzyloxy)phenyl]-2-(4-methylpiperazin-1-yl)ethyl]cyclohexanol dihydrochloride] | – | 138 nM |
| CN1CCN(CC(c2ccc(OCc3ccccc3)c(F)c2)C2(O)CCCCC2)CC1 (centres unmarked) [Example 414, 1-{1-[4-(benzyloxy)-3-fluorophenyl]-2-(4-methylpiperazin-1-yl)ethyl}cyclohexanol dihydrochloride] | 96% | – |
| CN1CCN(CC(c2ccc(OCc3ccc(C(F)(F)F)cc3)c(F)c2)C2(O)CCCCC2)CC1 (centres unmarked) [Example 416, 1-[1-(3-fluoro-4-{[4-(trifluoromethyl)benzyl]oxy}phenyl)-2-(4-methylpiperazin-1-yl)ethyl]cyclohexanol dihydrochloride] | 91% | – |
| Cc1ccc(COc2ccc(C(CN3CCNCC3)C3(O)CCCCC3)cc2F)cc1 (centres unmarked) [Example 417, 1-(1-{3-fluoro-4-[(4-methylbenzyl)oxy]phenyl}-2-piperazin-1-ylethyl)cyclohexanol dihydrochloride] | 78% | – |
| OC1(C(CN2CCNCC2)c2ccc(OCc3ccc(C(F)(F)F)cc3)c(Cl)c2)CCCCC1 (centres unmarked) [Example 419, 1-[1-(3-chloro-4-{[4-(trifluoromethyl)benzyl]oxy}phenyl)-2-piperazin-1-ylethyl]cyclohexanol dihydrochloride] | 46% | – |

Results, then the molecule that gave them:

| inhibition at 1 µM | EC50 | SMILES |
| --- | --- | --- |
| 93% | – | C[C@@H]1CN(C[C@H](c2cccc(OC(F)(F)F)c2)C2(O)CCCCC2)C[C@H](C)N1C [Example 368, 1-{(1S)-1-[3-(trifluoromethoxy)phenyl]-2-[(3R,5S)-3,4,5-trimethylpiperazin-1-yl]ethyl}cyclohexanol dihydrochloride] |
| 78% | – | OC1([C@H](CN2CCN3CCCCC3C2)c2cccc(OC(F)(F)F)c2)CCCCC1 (stereo partly drawn) [Example 371, 1-{(1S)-2-(octahydro-2H-pyrido[1,2-a]pyrazin-2-yl)-1-[3-(trifluoromethoxy)phenyl]ethyl}cyclohexanol dihydrochloride] |
| 16% | – | OC1(C(CN2CCNCC2)c2ccc(Oc3cccc4ccccc34)cc2)CCCCC1 (centres unmarked) [Example 389, 1-{1-[4-(1-naphthyloxy)phenyl]-2-piperazin-1-ylethyl}cyclohexanol dihydrochloride] |
| 68% | – | OC1(C(CN2CCNCC2)c2cc(Br)c(OCc3ccccc3)c(Br)c2)CCCCC1 (centres unmarked) [Example 392, 1-{1-[4-(benzyloxy)-3,5-dibromophenyl]-2-piperazin-1-ylethyl}cyclohexanol dihydrochloride] |
| 92% | – | C[C@@H]1CCC(O)(C(CN2CCN(C)CC2)c2cccc(OC(F)(F)F)c2)C1 (stereo partly drawn) [Example 395, (3R)-3-methyl-1-{2-(4-methylpiperazin-1-yl)-1-[3-(trifluoromethoxy)phenyl]ethyl}cyclopentanol dihydrochloride] |
| 33% | – | CC1(C)CCCC1(O)C(CN1CCNCC1)c1cccc(OC(F)(F)F)c1 (centres unmarked) [Example 396, 2,2-dimethyl-1-{2-piperazin-1-yl-1-[3-(trifluoromethoxy)phenyl]ethyl}cyclopentanol dihydrochloride] |
| 17% | – | CN1CCN(CC(c2ccc(Oc3cccc4ccccc34)cc2)C2(O)CCCCC2)CC1 (centres unmarked) [Example 399, 1-{2-(4-methylpiperazin-1-yl)-1-[4-(1-naphthyloxy)phenyl]ethyl}cyclohexanol dihydrochloride] |
| 25% | – | CN1CCN(CC(c2ccc(O)c(OC(F)(F)F)c2)C2(O)CCCCC2)CC1 (centres unmarked) [Example 401, 4-[1-(1-hydroxycyclohexyl)-2-(4-methylpiperazin-1-yl)ethyl]-2-(trifluoromethoxy)phenol dihydrochloride] |
| 42% | – | COc1ccc(C(CN2CCNCC2)C2(O)CCCCC2)cc1OC(F)(F)F (centres unmarked) [Example 402, 1-{1-[4-methoxy-3-(trifluoromethoxy)phenyl]-2-piperazin-1-ylethyl}cyclohexanol dihydrochloride] |
| 27% | – | CCOc1ccc(C(CN2CCN(C)CC2)C2(O)CCCCC2)cc1OC(F)(F)F (centres unmarked) [Example 405, 1-[1-[4-ethoxy-3-(trifluoromethoxy)phenyl]-2-(4-methylpiperazin-1-yl)ethyl]cyclohexanol dihydrochloride] |
| – | 483 nM | CN1CCN(C[C@H](c2ccc(OCc3ccccc3)cc2)C2(O)CCCCC2)CC1 [Example 411, 1-[(2S)-1-[4-(benzyloxy)phenyl]-2-(4-methylpiperazin-1-yl)ethyl]cyclohexanol dihydrochloride] |
| 76% | – | OC1(C(CN2CCNCC2)c2ccc(OCc3ccccc3)c(F)c2)CCCCC1 (centres unmarked) [Example 413, 1-{1-[4-(benzyloxy)-3-fluorophenyl]-2-piperazin-1-ylethyl}cyclohexanol dihydrochloride] |
| 84% | – | OC1(C(CN2CCNCC2)c2ccc(OCc3ccc(C(F)(F)F)cc3)c(F)c2)CCCCC1 (centres unmarked) [Example 415, 1-[1-(3-fluoro-4-{[4-(trifluoromethyl)benzyl]oxy}phenyl)-2-piperazin-1-ylethyl]cyclohexanol dihydrochloride] |
| 71% | – | Cc1ccc(COc2ccc(C(CN3CCN(C)CC3)C3(O)CCCCC3)cc2F)cc1 (centres unmarked) [Example 418, 1-[1-(3-fluoro-4-{[4-(methyl)benzyl]oxy}phenyl)-2-(4-methylpiperazin-1-yl)ethyl]cyclohexanol dihydrochloride] |
| 68% | – | CN1CCN(CC(c2ccc(OCc3ccc(C(F)(F)F)cc3)c(Cl)c2)C2(O)CCCCC2)CC1 (centres unmarked) [Example 420, 1-[1-(3-chloro-4-{[4-(trifluoromethyl)benzyl]oxy}phenyl)-2-(4-methylpiperazin-1-yl)ethyl]cyclohexanol dihydrochloride] |
| 59% | – | OC1(C(CN2CCNCC2)c2ccc(OCc3ccccc3C(F)(F)F)c(Cl)c2)CCCCC1 (centres unmarked) [Example 421, 1-[1-(3-chloro-4-{[2-(trifluoromethyl)benzyl]oxy}phenyl)-2-piperazin-1-ylethyl]cyclohexanol dihydrochloride] |
